Measured values: patent publication US12258317B2, “Isoquinolinone compound for inhibiting ssao/vap-1, and use thereof” (SUNSHINE LAKE PHARMA CO., LTD., priority 2019, dated 2025)
Where a name gives a salt, the structure may show the parent alone.

Tests used:
[1] = molecular target: Human recombinant DAO (Homo sapiens (Human), UniProt P19801); experiment: Determination of selective inhibition of DAO (diamine oxidase) (Amplex Red, 1,4-diaminobutane substrate); type: biochemical; conditions: 30 min pre-incubation at 37° C.
From the text: 2. Determination of Selective Inhibition of DAO (Diamine Oxidase)
Test purpose: The following method is used to determine the selective inhibitory activity of the compound of the present invention on DAO.
• Human recombinant DAO (Recombinant Human ABP-1/DAO) was purchased from R&D, Cat. No. 8298-AO; • Amplex® Red Hydrogen PeroxidePeroxidase Assay Kit was purchased from Invitrogen, Cat. No. A22188; • 1,4-Diaminobutane dihydrochloride was purchased from Aladdin, Cat. No. D106194-25G. Test Method:
The test compound was dissolved in DMSO and diluted 5 times to a total of 6 concentrations. In a 384-well plate, 24 μL of human recombinant DAO (1 μg/mL) was added into each well. 1 μL of test compounds at different concentrations were added to each well containing human recombinant DAO, and the plate was incubated at 37° C. for 30 min. After incubating for 30 min, 25 μL of Amplex® Red Hydrogen Peroxide Peroxidase Assay Kit (containing 100 μM Amplex® Red and 0.2 U/ml HRP) containing 1 M 1,4-butanediamine dihydrochloride was added into the corresponding wells, and the plate was incubated in the dark at 37° C. for 30 min. After 30 min, PHERAstar FSX microplate reader of BMG LABTECH was used to read the fluorescence value (RFU) under excitation at 540 nm and emission at 580 nm. The graph was drawn using Graph Pad Prism 5 software to calculate the IC50 value.

[2] = molecular target: human recombinant SSAO/VAP-1 (Homo sapiens (Human), UniProt Q16853); experiment: Determination of inhibitory activity of human recombinant SSAO/VAP-1 (Amplex Red, benzylamine substrate); type: biochemical; conditions: 30 min pre-incubation at room temperature; read-out: SSAO/VAP-1 (Human Recombinant Protein) IC50
From the text: 1. Determination of Inhibitory Activity of Human Recombinant SSAO/VAP-1
Test purpose: The following method is used to determine the inhibitory activity of the compounds in the examples of the present invention on human recombinant SSAO/VAP-1.
• Human recombinant SSAO/VAP-1 (VAP-1, human) was purchased from Sigma, Cat. No. SRP6241; • Amplex® Red Monoamine Oxidase Assay Kit was purchased from Invitrogen, Cat. No. A12214; • 384-well plate was purchased from Corning, Cat. No. 6005174; • Amplex® Red Hydrogen PeroxidePeroxidase Assay Kit was purchased from Invitrogen, Cat. No. A22188.
Benzylamine hydrochloride was purchased from Sigma, Cat. No. B5136-25G; • DMSO (Dimethyl Sulfoxide) was purchased from Sigma, Cat. No. D2650-100ML; Test Method:
The test compound was dissolved in DMSO and diluted 4 times to a total of 10 concentrations. In a 384-well plate, 25 μL of human recombinant SSAO/VAP-1 (1.6 μg/mL) was added into each well. 100 nL of test compounds at different concentrations were added to each well containing human recombinant SSAO/VAP-1, and the plate was incubated at room temperature for 30 min. After incubating for 30 min, 25 μL of Amplex® Red Monoamine Oxidase Assay Kit (a reaction mixture containing 200 μM Amplex Red reagent, 1 U/mL HRP and 1 mM benzylamine hydrochloride) was added into the corresponding wells, and the plate was incubated at room temperature in the dark for 60 min. After 60 min, PerkinElmer's Envision was used to read the fluorescence value (RFU) under excitation at 530-560 nm and emission at 590 nm. The graph was drawn using Graph Pad Prism 5 software to calculate the IC50 value.

Sequence of Human recombinant DAO (P19801 20-751): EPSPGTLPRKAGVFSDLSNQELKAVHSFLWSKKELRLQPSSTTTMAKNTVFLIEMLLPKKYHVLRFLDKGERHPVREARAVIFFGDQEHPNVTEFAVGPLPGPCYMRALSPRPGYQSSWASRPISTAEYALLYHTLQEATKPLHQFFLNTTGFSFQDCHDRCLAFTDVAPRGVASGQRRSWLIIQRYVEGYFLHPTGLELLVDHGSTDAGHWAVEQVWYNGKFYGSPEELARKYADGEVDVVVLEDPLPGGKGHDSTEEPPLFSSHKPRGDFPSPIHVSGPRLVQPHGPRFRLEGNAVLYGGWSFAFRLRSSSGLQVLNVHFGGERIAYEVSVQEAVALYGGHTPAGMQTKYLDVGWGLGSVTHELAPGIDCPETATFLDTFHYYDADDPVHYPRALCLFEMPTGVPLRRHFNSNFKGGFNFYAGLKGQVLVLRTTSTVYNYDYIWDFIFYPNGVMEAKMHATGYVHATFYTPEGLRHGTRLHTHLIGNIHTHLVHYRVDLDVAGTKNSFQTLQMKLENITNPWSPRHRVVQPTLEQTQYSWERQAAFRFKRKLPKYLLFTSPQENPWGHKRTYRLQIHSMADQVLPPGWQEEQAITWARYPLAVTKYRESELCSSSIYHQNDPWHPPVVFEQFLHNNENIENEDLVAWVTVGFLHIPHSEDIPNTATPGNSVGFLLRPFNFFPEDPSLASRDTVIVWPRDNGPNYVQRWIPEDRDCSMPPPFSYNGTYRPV
Sequence of human recombinant SSAO/VAP-1 (Q16853 whole entry): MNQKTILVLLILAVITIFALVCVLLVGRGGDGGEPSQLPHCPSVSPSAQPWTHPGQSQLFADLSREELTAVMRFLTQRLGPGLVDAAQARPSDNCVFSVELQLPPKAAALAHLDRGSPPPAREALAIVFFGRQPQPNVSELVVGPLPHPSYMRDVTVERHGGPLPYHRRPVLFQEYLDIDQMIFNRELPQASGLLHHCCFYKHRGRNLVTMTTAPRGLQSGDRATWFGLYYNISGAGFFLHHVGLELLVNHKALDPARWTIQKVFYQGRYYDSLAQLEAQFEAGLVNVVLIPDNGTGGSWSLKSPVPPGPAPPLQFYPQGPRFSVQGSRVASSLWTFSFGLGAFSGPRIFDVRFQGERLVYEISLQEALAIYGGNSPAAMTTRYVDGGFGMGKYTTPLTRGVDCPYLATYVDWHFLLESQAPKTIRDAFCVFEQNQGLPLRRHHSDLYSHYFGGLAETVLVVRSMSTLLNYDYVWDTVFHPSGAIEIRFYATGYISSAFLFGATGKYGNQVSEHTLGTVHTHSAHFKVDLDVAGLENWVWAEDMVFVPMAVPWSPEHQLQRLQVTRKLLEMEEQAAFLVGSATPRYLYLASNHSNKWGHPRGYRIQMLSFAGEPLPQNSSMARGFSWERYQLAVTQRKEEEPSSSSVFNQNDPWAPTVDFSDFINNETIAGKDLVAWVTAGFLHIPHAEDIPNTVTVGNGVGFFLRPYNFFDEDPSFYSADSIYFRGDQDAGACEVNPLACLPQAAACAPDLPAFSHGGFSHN

Compound | IC50 [1] [nM] | IC50 [2] [nM]
NC/C(=C\F)COc1ccc2c(c1)CCN(CC(=O)NC1CCC1)C2=O [Example 17, 2-[6-[(E)-2-(aminomethyl)-3-fluoro-allyloxy]-1-oxo-3,4-dihydroisoquinolin-2-yl]-N-cyclobutyl-acetamide hydrochloride] | > 100 | 
CCCNC(=O)CN1CCc2cc(OC/C(=C/F)CN)ccc2C1=O [Example 21, 2-[6-[(E)-2-(aminomethyl)-3-fluoro-allyloxy]-1-oxo-3,4-dihydroisoquinolin-2-yl]-N-propyl-acetamide hydrochloride] | > 1000 | 11.8
NC/C(=C\F)COc1ccc2c(c1)CCN(CC(=O)N1CCCC1)C2=O [Example 20, 6-[(E)-2-(aminomethyl)-3-fluoro-allyloxy]-2-(2-oxo-2-pyrrolidin-1-yl-ethyl)-3,4-dihydroisoquinoline-1-one hydrochloride] | > 100 | 
CNC(=O)CN1CCc2cc(OC/C(=C\F)CN)ccc2C1=O [Example 4, 2-[6-[(Z)-2-(aminomethyl)-3-fluoro-allyloxy]-1-oxo-3,4-dihydroisoquinolin-2-yl]-N-methyl-acetamide hydrochloride] |  | 3.7
CCOP(=O)(CCN1CCc2cc(OC/C(=C/F)CN)ccc2C1=O)OCC [Example 24, 6-[(E)-2-(aminomethyl)-3-fluoro-allyloxy]-2-(2-diethoxyphosphorylethyl)-3,4-dihydroisoquinoline-1-one hydrochloride] | > 100 | 3.67
CCNC(=O)CN1CCc2cc(OC/C(=C/F)CN)ccc2C1=O [Example 5, 2-[6-[(E)-2-(aminomethyl)-3-fluoro-allyloxy]-1-oxo-3,4-dihydroisoquinolin-2-yl]-N-ethyl-acetamide hydrochloride] | > 100 | 
NC/C(=C\F)COc1ccc2c(c1)CCN(CC(=O)NC1CC(F)(F)C1)C2=O [Example 19, 2-[6-[(E)-2-(aminomethyl)-3-fluoro-allyloxy]-1-oxo-3,4-dihydroisoquinolin-2-yl]-N-(3,3-difluorocyclobutyl)-acetamide hydrochloride] | > 1000 | 4.01
CC(C)CNC(=O)CN1CCc2cc(OC/C(=C/F)CN)ccc2C1=O [Example 11, 2-[6-[(E)-2-(aminomethyl)-3-fluoro-allyloxy]-1-oxo-3,4-dihydroisoquinolin-2-yl]-N-isobutyl-acetamide hydrochloride] | > 100 | 
CS(=O)(=O)CCNC(=O)CN1CCc2cc(OC/C(=C/F)CN)ccc2C1=O [Example 18, 2-[6-[(E)-2-(aminomethyl)-3-fluoro-allyloxy]-1-oxo-3,4-dihydroisoquinolin-2-yl]-N-(2-methanesulfonylethyl)acetamide hydrochloride] | > 1000 | 8.66
CS(=O)(=O)CCN1CCc2cc(OC/C(=C/F)CN)ccc2C1=O [Example 25, 6-[(E)-2-(aminomethyl)-3-fluoro-allyloxy]-2-(2-methylsulfonylethyl)-3,4-dihydroisoquinoline-1-one hydrochloride] | > 100 | 3.38
NC/C(=C\F)COc1ccc2c(c1)CCN(CC(=O)NC1CC1)C2=O [Example 16, 2-[6-[(E)-2-(aminomethyl)-3-fluoro-allyloxy]-1-oxo-3,4-dihydroisoquinolin-2-yl]-N-cyclopropyl-acetamide hydrochloride] | > 100 | 
CN(C)C(=O)CN1CCc2cc(OC/C(=C\F)CN)ccc2C1=O [Example 8, 2-[6-[(Z)-2-(aminomethyl)-3-fluoro-allyloxy]-1-oxo-3,4-dihydroisoquinolin-2-yl]-N,N-dimethyl-acetamide hydrochloride] |  | 1
CNC(=O)CN1CCc2cc(OC/C(=C/F)CN)ccc2C1=O [Example 3, 2-[6-[(E)-2-(aminomethyl)-3-fluoro-allyloxy]-1-oxo-3,4-dihydroisoquinolin-2-yl]-N-methyl-acetamide hydrochloride] | > 100 | 
CN(C)C(=O)CN1CCc2cc(OC/C(=C/F)CN)ccc2C1=O [Example 7, 2-[6-[(E)-2-(aminomethyl)-3-fluoro-allyloxy]-1-oxo-3,4-dihydroisoquinolin-2-yl]-N, N-dimethyl-acetamide hydrochloride] | > 1000 | 11.1
CC(C)(C)NC(=O)CN1CCc2cc(OC/C(=C/F)CN)ccc2C1=O [Example 15, 2-[6-[(E)-2-(aminomethyl)-3-fluoro-allyloxy]-1-oxo-3,4-dihydroisoquinolin-2-yl]-N-tert-butyl-acetamide hydrochloride] | > 100 | 
CC(C)NC(=O)CN1CCc2cc(OC/C(=C/F)CN)ccc2C1=O [Example 9, 2-[6-[(E)-2-(aminomethyl)-3-fluoro-allyloxy]-1-oxo-3,4-dihydroisoquinolin-2-yl]-N-isopropyl-acetamide hydrochloride] | > 1000 | 
COCCNC(=O)CN1CCc2cc(OC/C(=C/F)CN)ccc2C1=O [Example 22, 2-[6-[(E)-2-(aminomethyl)-3-fluoro-allyloxy]-1-oxo-3,4-dihydroisoquinolin-2-yl]-N-(2-methoxyethyl)acetamide hydrochloride] | > 100 | 
CCNC(=O)CN1CCc2cc(OC/C(=C\F)CN)ccc2C1=O [Example 6, 2-[6-[(Z)-2-(aminomethyl)-3-fluoro-allyloxy]-1-oxo-3,4-dihydroisoquinolin-2-yl]-N-ethyl-acetamide hydrochloride] |  | 4.12
NC/C(=C\F)COc1ccc2c(c1)CCN(CC(=O)NCC(F)(F)F)C2=O [Example 13, 2-[6-[(E)-2-(aminomethyl)-3-fluoro-allyloxy]-1-oxo-3,4-dihydroisoquinolin-2-yl]-N-(2,2,2-trifluoroethyl)acetamide hydrochloride] | > 100 | 
